Reference: patent US12661353B2, “SPT5 inhibitors and uses thereof” (Yeda Research and Development Co. Ltd., priority 2020, dated 2026)

Experiments:
Assay type in all cases: cell-based, human
[1] = system: A20 mRNA; assay: Splicing of A20: mature/immature transcripts, RT-qPCR; conditions: following TNFα induction, 50 μM
Procedure: Bars represent the mean of at least 3±SEM independent experiments. The asterisks denote statistical significance differences relative to DMSO+TNFα control according to Student's t tests (typically one tailed, paired): *p<0.05; **p<0.01; ***p<0.005; ****p<0.001. […] Shown are mRNA levels of A20 (normalized to GAPDH) in Hela cells treated with SPI-21 and TNFα and incubated with actinomycin D for the indicated time points, as determined by real-time qPCR. The data points present the mean of 3±SEM independent experiments. […] Shown are levels of mature and immature transcripts in cells incubated for 1 hour with DMSO (vehicle control) or 50 μM of SPI-21 or SPI-18 followed by treatment with TNFα for an additional one hour, as determined by real-time qPCR using primers spanning exons 3 and 4 (mature, black arrows shown in the scheme of G, SEQ ID NOs: 47 and 48) or intron 1 and exon 2 (immature, red arrows shown in the scheme of G, SEQ ID NOs: 49 and 50). […] DMSO (vehicle control), SPI-21 or SPI-18 treated cells were induced by TNFα for the indicated times and the levels of IκBα and β-Tubulin proteins were analyzed by western blot as indicated. […] The occupancy of the A20 gene was analyzed by qPCR using primers from the first (A, SEQ ID NOs: 55 and 56), third (B, SEQ ID NOs: 57 and 58) and last (C, SEQ ID NOs: 59 and 60) exon-intron junctions. […]

[2] = system: HeLa cells; assay: Cells viability assay (CellTiter-Glo), HeLa; conditions: increasing concentrations, 48 h
Procedure: Cells viability assay—_HeLa cells were plated in an opaque-walled 96 well plate (50,000 cells per well) and treated with increasing concentrations of the tested SPI compounds (e.g., SPI-21 or SPI-18) for 48 hours. After equilibrating the plate and its contents at room temperature for 30 minutes, […] (1:1) of CellTiter-Glo® Reagent (G7571, Promega) was added to each well and shook for 2 minutes to induce cell lysis. Following 10 minutes incubation at room temperature, the luminescent signal was detected using the Cytation 5 instrument.
Spt5 was reported to be essential for cell growth and survival in mammalian cells (Komori et al., 2009).

[3] = system: replication-dependent histone genes; assay: Histone gene levels after 24 hours, cDNA with random hexamers, qPCR
Procedure: A schematic illustration of a histone gene structure is shown on the top. For polyA+ RNA analysis, cDNA was prepared with a poly-dT oligonucleotide. In each analysis the levels were normalized to GAPDH; and the bars present the mean of 3±SEM independent experiments. * P<0.05 relative to DMSO (vehicle control). […] The data represent the means±SEMs of 3 independent experiments. The asterisks denote statistically significant differences relative to DMSO; according to Student's t tests (typically one-tailed, paired): *p<0.05; **p<0.01; ***p<0.005.
Since the RNA-seq following treatment with SPI-21 detects only polyadenylated transcripts and the treatment was effected for 2 hours, during which only a fraction of cells is in S-phase, an effect on histone genes was not found. Thus, to investigate further the regulation of histone genes by Spt5 using the identified SPIs, cells were treated for 24 hours with SPI-21 or SPI-18, to allow all cells to pass S-phase at least once. Following, mRNA was extracted and cDNA was prepared using random hexamers and the levels of 4 histone genes were determined. […] To this end, cDNA prepared by random hexamer and Poly-T the ratio between total and poly-A tailed histone genes was determined. […]

SMILES | mature/immature A20 mRNA ratio [1] | cellular viability [2] | expression of the selected histone genes [3]
Nc1ccccc1SC(CC(=O)c1cccs1)c1cccs1 (stereo not drawn) [SPI-18] | clear decrease in mature/immature ratio | dramatically diminish cellular viability in a dose-dependent manner | diminished expression of the selected histone genes
COc1ccc(C=CC(=O)c2cc(O)ccc2O)cc1 [SPI-21] | clear decrease in mature/immature ratio | dramatically diminish cellular viability in a dose-dependent manner | diminished expression of the selected histone genes
